Reference: US6827926B2, “Metallotetrapyrrolic photosensitizing agents for use in photodynamic therapy” (Miravant Pharmaceuticals, Inc., priority 2001, dated 2004)
Read-outs that look alike come from different tables or passages of the source.

System: V79 (Chinese Hamster Lung Fibroblasts) cells
Test: In vitro cytotoxicity assay (light EC50, Alamar blue)
Assay type: cell-based
Experimental: The in vitro biological evaluation of photosensitizers for their ability to photosensitize cells was performed using standard procedures. Using 5% FBS/DMEM phenol-free media, wells (180 μl/well) were plated with 5×10^4 V79 (Chinese Hamster Lung Fibroblasts) cells/ml into two 96 well plates. Plate 1 was light-treated and plate 2 served as a control. The plates were Incubated at 37° C., 5% CO2 for 3-5 hours. Standard solutions of the photosensitizers were dissolved in pre-filtered Dimethyl Sulfoxide (DMSO). Drug was diluted in 5% FBS DMEM phenol free medium. Final drug concentrations for light and dark experiments were 0.01, 0.1, 1.0, 3.0 and 5.0 μM. Twenty microliters of each concentration were added to six replicate wells to the light and dark plate. The plates were wrapped in aluminum foil to avoid photoactivation and mixed in a gyratory shaker for approximately 2 minutes. Both plates were incubated for 24 hours at 37° C., 5% CO2. After a 24 hour incubation, drug-containing media was aspirated from the plates. Each well was rinsed with 180 μl Hepes buffer salt solution (HBSS) then aspirated to remove the HBSS. 180 μl of fresh media were added (5% FBS/DMEM phenol-free) to each well. […] Plate 2 was not light treated. Immediately after light treatment, 20 μl Alamar blue was added to each well in plate 1. Alamar blue was added to plate 2 immediately after fresh media was added. The plates were mixed on a gyratory shaker for 5 min.
Both plates were incubated under dark conditions for 24 hours at 37° C., 5% CO2. After 24 hour incubation, the plates were read on a plate reader spectrophotometer (Spectra Max 250) at wavelengths 570 and 600 nm. and the percentage of cell survival recorded.

[1] = Table 4 azaporphyrins, 575 nm (Pt azaporphyrins 532 nm), 1.25 J/cm^2, read-out: In Vitro EC(50)
[2] = Table 3 porphyrins, 24 h drug incubation, 532 nm, 1.25 J/cm^2, read-out: In Vitro EC50 Light

SMILES	EC50 [1] [nM]	EC50 [2] [nM]	further results
COC(=O)CCC1=C(C)C2=Cc3c(C)c(C(C)OC)c4[n]3[Ga-2]35([Cl])[n]6c(c(C)c(CCC(=O)OC)c6=CC1=[N+]23)=CC1=[N+]5C(=N4)C(C)=C1C(C)OC (mixture of isomers) [M=Ga R1,R3=Me R2,R4=CH(OMe)CH3 R=CO2Me]	1000	–	–
CNC(=O)CCC1=C(C)C2=Cc3cc(C)c4[n]3[Ga-2]35([Cl])[n]6c(c(C)c(CCC(=O)NC)c6=CC1=[N+]23)=CC1=[N+]5C(=C4)C=C1C [Example 6, Gallium Chloride Deuteroporphyrin Methylamide]	–	4050	–
CCC1=C(C)C2=[N+]3C1=Cc1c(C)c(CC)c4[n]1[Ga-2]31([Cl])[n]3c(c(C)c(CCC(=O)NCCOCCO)c3=CC3=[N+]1C(=C4)C(C)=C3CCC(=O)NCCOCCO)=C2 [Example 16, Gallium Chloride Mesoporphyrin 2-ethoxyethanol amide]	–	2900	–
CCC1=C(C)c2nc1cc1[n-]c(cc3nc(cc4[n-]c(n2)c(C)c4CCC(=O)OC)C(CCC(=O)OC)=C3C)c(CC)c1C.[Cl-].[Ga+3] [Example 20, Gallium Chloride 5-azamesoporphyrin IX Dimethyl Ester]	400	–	–
CCC1=C(C)C2=[N+]3C1=Cc1c(C)c(CC)c4[n]1[Al-2]31([Cl])[n]3c(c(C)c(CCC(=O)NC)c3=CC3=[N+]1C(=C4)C(C)=C3CCC(=O)NC)=C2 [Example 61, Aluminum Chloride Mesoporphyrin N-methylamide]	–	2000	–
CCC1=C(C)C2=[N+]3C1=Cc1c(C)c(CC)c4[n]1[Pt-2]31[n]3c(c(C)c(CCC(=O)NCCOC)c3=CC3=[N+]1C(=C4)C(C)=C3CCC(=O)NCCOC)=C2 (stereo not shown) [Example 65, Platinum Mesoporphyrin di(2-methoxyethylamide)]	–	50	–
CCC1=C(C)c2cc3[n-]c(cc4nc(cc5[n-]c(cc1n2)c(C)c5CC)C(C)=C4CCC(=O)NCCCO)c(CCC(=O)NCCCO)c3C.[Pt+2] [Example 67, Platinum Mesoporphyrin di(3-hydroxypropylamide)]	–	100	–
CC1=CC2=Cc3c(C)cc4[n]3[Ga-2]35([Cl])[n]6c(c(C)c(CCC(=O)NCCCO)c6=CC6=[N+]3C(=C4)C(C)=C6CCC(=O)NCCCO)=CC1=[N+]25 [Example 68, Gallium Chloride Deuteroporphyrin di(3-hydroxypropylamide)]	–	3000	–
CCOP(=O)(CCCC1=C(C)c2cc3cc(C)c(cc4nc(cc5[n-]c(cc1n2)c(CCCP(=O)(OCC)OCC)c5C)C(C)=C4)[n-]3)OCC.[Cl-].[Ga+3] [Example 80, Gallium Chloride 3,7,12,17-tetramethylporphyrin-2,18-di((3′-diethylphosphono)propyl)]	–	2000	–
CCC1=C(CC)C2=[N+]3C1=Nc1c(CC)c(CC)c4[n]1[Pt-2]31[n]3c(c(C)c(CCC(=O)OC)c3=CC3=[N+]1C(=C4)C(C)=C3CCC(=O)OC)=C2 (stereo not shown) [Example 85, Platinum 7,8,12,13-tetraethyl-12,17-dimethyl-10-azaporphyrin-2,18-di(propionic acid methyl ester)]	4000	–	–
CCC1=C(CC)C2=[N+]3C1=Nc1c(CC)c(CC)c4[n]1[Pt-2]31[n]3c(c(C)c(CCC(=O)O)c3=CC3=[N+]1C(=C4)C(C)=C3CCC(=O)O)=C2.[K+].[K+] (stereo not shown) [Example 86, Platinum 7,8,12,13-tetraethyl-12,17-dimethyl-10-azaporphyrin-2,18-di(propionic acid Potassium Salt)]	400	–	–
CCC1=C(CC)C2=[N+]3C1=Nc1c(CC)c(CC)c4[n]1[Ga-2]31([OH])[n]3c(c(C)c(CCC(=O)O)c3=CC3=[N+]1C(=C4)C(C)=C3CCC(=O)O)=C2.[Na+].[Na+] [Example 88, Gallium Hydroxy 7,8,12,13-tetraethyl-12,17-dimethyl-10-azaporphyrin-2,18-di(propionic acid Sodium Salt)]	500	–	–
CCC1=C(CC)C2=Nc3c(CC)c(CC)c4[n]3[Pt][n]3c(c(C)c(CCC(=O)NC)c3=CC3=NC(=C4)C(C)=C3CCC(=O)NC)=CC1=N2 [Example 92, Platinum 7,8,12,13-tetraethyl-12,17-dimethyl-10-azaporphyrin-2,18-di(propionic acid methyl amide)]	2300	–	–
CCC1=C(CC)C2=Nc3c(CC)c(CC)c4[n]3[Al]([Cl])[n]3c(c(C)c(CCC(=O)NC)c3=CC3=NC(=C4)C(C)=C3CCC(=O)NC)=CC1=N2 [Example 93, Aluminum Chloride 7,8,12,13-tetraethyl-12,17-dimethyl-10-azaporphyrin-2,18-di(propionic acid methyl amide)]	100	–	–
CCC1=C(C)C2=NC1=Nc1c(C)c(CC)c3[n]1[Ga]([Cl])[n]1c(c(C)c(CCC(=O)NC)c1=CC1=NC(=C3)C(C)=C1CCC(=O)NC)=C2 [Example 94, Gallium Chloride 5-aza-mesoporphyrin IX Dimethyl Amide]	520	–	–
CCC1=C(CC)C2=Nc3c(CC)c(CC)c4[n]3[Ga]([Cl])[n]3c(c(C)c(CCC(=O)NCCOC)c3=CC3=NC(=C4)C(C)=C3CCC(=O)NCCOC)=CC1=N2 [Example 95, Gallium Chloride 7,8,12,13-tetraethyl-12,17-dimethyl-10-azaporphyrin-2,18-di(propionic acid 2′-methoxyethyl amide)]	2000	–	–
CCC1=C(CC)C2=Nc3c(CC)c(CC)c4[n]3[Pt][n]3c(c(C)c(CCC(=O)NCCOC)c3=CC3=NC(=C4)C(C)=C3CCC(=O)NCCOC)=CC1=N2 [Example 96, Platinum 7,8,12,13-tetraethyl-12,17-dimethyl-10-azaporphyrin-2,18-di(propionic acid-2′-methoxyethyl amide)]	1900	–	–
CCC1=C(CC)C2=Nc3c(CC)c(CC)c4[n]3[Pt][n]3c(c(C)c(CCC(=O)NCCCO)c3=CC3=NC(=C4)C(C)=C3CCC(=O)NCCCO)=CC1=N2 [Example 98, Platinum 7,8,12,13-tetraethyl-12,17-dimethyl-10-azaporphyrin-2,18-di(propionic acid-3′-hydroxypropyl amide amide)]	2000	–	–
CCC1=C(C)c2nc1cc1[n-]c(cc3nc(cc4[n-]c(n2)c(C)c4CCC(=O)NCCCO)C(CCC(=O)NCCCO)=C3C)c(CC)c1C.[Cl-].[Ga+3] [Example 99, Gallium Chloride 5-azamesoporphyrin IX di(3′-hydroxypropyl amide)]	500	–	–
CCC1=C(CC)C2=Nc3c(CC)c(CC)c4[n]3[Ga]([Cl])[n]3c(c(C)c(CCC(=O)NCCOCCO)c3=CC3=NC(=C4)C(C)=C3CCC(=O)NCCOCCO)=CC1=N2 [Example 100, Gallium Chloride 7,8,12,13-tetraethyl-12,17-dimethyl-10-azaporphyrin-2,18-di(propionic acid-2-ethoxyethanol amide)]	1300	–	–
CCC1=C(CC)C2=Nc3c(CC)c(CC)c4[n]3[Pt][n]3c(c(C)c(CCC(=O)NCCOCCO)c3=CC3=NC(=C4)C(C)=C3CCC(=O)NCCOCCO)=CC1=N2 [Example 101, Platinum 7,8,12,13-tetraethyl-12,17-dimethyl-10-azaporphyrin-2,18-di(propionic acid-2-ethoxyethanol amide)]	1500	–	–
CCC1=C(CC)C2=Nc3c(CC)c(CC)c4[n]3[Pt][n]3c(c(C)c(CCC(=O)NCCN(C)C)c3=CC3=NC(=C4)C(C)=C3CCC(=O)NCCN(C)C)=CC1=N2 [Example 103, Platinum 7,8,12,13-tetraethyl-12,17-dimethyl-10-azaporphyrin-2,18-di(propionic acid-2′-N,N-dimethylaminoethyl amide)]	1200	–	–
CCC1=C(CC)C2=Nc3c(CC)c(CC)c4[n]3[In]([Cl])[n]3c(c(C)c(CCCO)c3=CC3=NC(=C4)C(C)=C3CCCO)=CC1=N2 [Example 104, Indium Chloride 7,8,12,13-tetraethyl-12,17-dimethyl-10-azaporphyrin-2,18-di(3′-hyroxypropyl)]	30	–	–
CCC1=C(CC)C2=Nc3c(CC)c(CC)c4[n]3[Pt][n]3c(c(C)c(CCCO)c3=CC3=NC(=C4)C(C)=C3CCCO)=CC1=N2 [Example 105, Platinum 7,8,12,13-tetraethyl-12,17-dimethyl-10-azaporphyrin-2,18-di(3′-hyroxypropyl)]	40	–	–
CCC1=C(CC)c2nc1cc1[n-]c(cc3nc(cc4[n-]c(n2)c(CC)c4CC)C(C)=C3CCCOC)c(CCCOC)c1C.[Cl-].[Ga+3] [Example 106, Gallium Chloride 7,8,12,13-tetraethyl-12,17-dimethyl-10-azaporphyrin-2,18-di(3′-methoxypropyl)]	1000	–	–
CCC1=C(C)C2=Cc3c(CC)c(C)c4[n]3[Ga-2]35([Cl])[n]6c(c(C)c(CCCOCCOC)c6=CC6=[N+]3C(=C4)C(C)=C6CCCOCCOC)=CC1=[N+]25 [M=Ga R1=Et R3=Me R4=Et R2=CH2O(CH2)2OCH3]	–	430	–
CCC1=C(C)C2=Cc3c(CC)c(C)c4[n]3[Ga-2]35([Cl])[n]6c(c(C)c(CCCOCCO)c6=CC6=[N+]3C(=C4)C(C)=C6CCCOCCO)=CC1=[N+]25 [M=Ga R1=Et R3=Me R4=Et R2=CH2O(CH2)2OH]	–	500	–
CCC1=C(CC)C2=[N+]3C1=Nc1c(CC)c(CC)c4[n]1[Ga-2]31([Cl])[n]3c(c(CC)c(CC)c3=C2c2ccc(OC)cc2)=NC2=[N+]1C(=C4c1ccc(OC)cc1)C(CC)=C2CC [M=Ga, R1=Et, R2=Et, R3=p-(C6H4)OCH3]	–	–	EC50 (light EC50, metallodiazaporphyrins, read-out: In Vitro EC(50)): 600 nM
